Test results reported in PubChem BioAssay AID743404 (Broad Institute, 2014).
Active and inactive are the calls of the source. How the calls were made is not given here.

system: not listed separately; assay: replicating M. tuberculosis growth inhibition, dose response, imaging, dry powder (AID 743404); conditions: Mycobacterium tuberculosis replicating growth, CFU imaging; at 50 µM (top of the series)

Compound	activity change, negative = inhibition
O=C(Nc1nc2ccccc2n1-c1ccccc1)c1ccccc1	-7.02% (inactive)

same assay, conditions: Mycobacterium tuberculosis replicating growth, CFU imaging; at 100 µM (top of the series)

Compound	activity change, negative = inhibition
Cn1c(NC(=O)c2ccccc2)nc2cc(F)ccc21	-9.27% (inactive)
Cn1c(NC(=O)c2ccc(-c3ncco3)cc2)nc2ccccc21	-1.55% (inactive)
CC(C)Oc1ccc(C(=O)Nc2nc3ccccc3n2C)cc1	-8.59% (inactive)
CN(C(=O)c1ccccc1)c1nc2ccccc2n1C	-7.26% (inactive)
Cn1c(NC(=O)c2nc3ccccc3s2)nc2ccccc21	3.65% (inactive)
Cn1c(NC(=O)c2ccc(C#N)cc2)nc2ccccc21	-1.94% (inactive)
COc1ccccc1C(=O)Nc1nc2ccccc2n1C	-18% (inactive)
COc1cccc(C(=O)Nc2nc3ccccc3n2C)c1	-11.3% (inactive)
COc1ccc(C(=O)Nc2nc3ccccc3n2C)cc1	-7.64% (inactive)
Cn1c(NC(=O)c2ccccc2)nc2cc(Cl)ccc21	-6.62% (inactive)
Cc1cc(C(=O)Nc2nc3ccccc3n2C)on1	-7.86% (inactive)
Cn1c(NC(=O)c2ccc(F)c(F)c2)nc2ccccc21	1.94% (inactive)
Cn1c(NC(=O)c2ccc(OC(F)(F)F)cc2)nc2ccccc21	1.97% (inactive)
Cn1c(NC(=O)c2ccc(-c3nccs3)cc2)nc2ccccc21	1.95% (inactive)
Cc1ccc2c(c1)nc(NC(=O)c1ccccc1)n2C	-14.6% (inactive)
Cn1c(NC(=O)c2ccncc2)nc2ccccc21	-9.25% (inactive)
Cn1c(NC(=O)Nc2ccccc2)nc2ccccc21	-16.1% (inactive)
O=C(Nc1nc2ccccc2n1Cc1ccccc1)c1ccccc1	3.29% (inactive)
Cn1c(NC(=O)c2ccccc2)nc2ccc3ncccc3c21	-10.6% (inactive)
Cn1c(NC(=O)c2ccccc2)nc2cc(C(F)(F)F)ccc21	-1.86% (inactive)
COc1ccc2c(c1)nc(NC(=O)c1ccccc1)n2C	-10.1% (inactive)
Cn1c(NC(=O)c2ccccc2)nc2ccc(F)cc21	-13% (inactive)
CC(=O)Nc1nc2ccccc2n1C	-2.24% (inactive)
Cn1c(NC(=O)c2ccc(N3CCOC3=O)cc2)nc2ccccc21	3.62% (inactive)

Compound	activity change, negative = inhibition
Cn1c(NC(=O)c2ccc(-n3ccnn3)cc2)nc2ccccc21	0.752% (inactive)
Cn1c(NC(=O)c2ccccc2Cl)nc2ccccc21	-2.89% (inactive)
Cn1c(NC(=O)c2ccccc2)nc2cccnc21	-6.96% (inactive)
O=C(Nc1nc2ccccc2n1CCN1CCOCC1)c1ccccc1	-5.41% (inactive)
Cn1c(NC(=O)Cc2ccccc2)nc2ccccc21	-15.4% (inactive)
O=C(Nc1nc2ccccc2[nH]1)c1ccccc1	1.93% (inactive)
COCCn1c(NC(=O)c2ccccc2)nc2ccccc21	-13.8% (inactive)
Cn1c(C(=O)Nc2ccccc2)nc2ccccc21	-11.4% (inactive)
COc1cccc2c1nc(NC(=O)c1ccccc1)n2C	-17.3% (inactive)
Cn1c(NC(=O)c2ccc(N3CCOCC3)cc2)nc2ccccc21	-9.12% (inactive)
Cn1c(NC(=O)c2cccc(C(F)(F)F)c2)nc2ccccc21	-12.4% (inactive)
Cn1c(NC(=O)c2ccno2)nc2ccccc21	-5.54% (inactive)
Cn1c(NC(=O)c2cccs2)nc2ccccc21	-15.5% (inactive)
Cn1c(NC(=O)c2ccccc2C(F)(F)F)nc2ccccc21	-8.14% (inactive)
Cn1c(NS(=O)(=O)c2ccccc2)nc2ccccc21	-4.4% (inactive)
Cn1c(NC(=O)c2ccc(Cl)c(Cl)c2)nc2ccccc21	0.098% (inactive)
Cn1c(NC(=O)c2ccc3ncoc3c2)nc2ccccc21	1.4% (inactive)
COc1ccc(C(=O)Nc2nc3ccccc3n2C)cc1OC	-3.35% (inactive)
CC(C)n1c(NC(=O)c2ccccc2)nc2ccccc21	-7.84% (inactive)
O=C(Nc1nc2ccccc2n1C1CC1)c1ccccc1	-6.92% (inactive)
O=C(Nc1nc2ccccc2s1)c1ccccc1	-9.11% (inactive)
Cn1c(NC(=O)c2ccccc2)nc2ccc(C#N)cc21	4.9% (inactive)
Cn1c(NC(=O)c2ccc(Oc3ccccc3)cc2)nc2ccccc21	-18.8% (inactive)
Cn1c(NC(=O)c2ccccc2)nc2cccc(Cl)c21	-2% (inactive)

system: Mycobacterium tuberculosis replicating growth, CFU imaging; assay: as above; conditions: not given

Compound	AC90
Cn1c(NC(=O)c2ccccc2)nc2c3ncccc3ccc21	10.6 µM
Cn1c(NC(=O)c2ccccc2)nc2c(Cl)cccc21	> 100 µM (inactive)
Cn1c(NC(=O)c2ccccc2)nc2c(C#N)cccc21	> 100 µM (inactive)
Cn1c(NC(=O)c2ccccc2)nc2c3cnccc3ccc21	14.4 µM
Cn1c(N2CCN(C(=O)c3ccccc3)CC2)nc2ccccc21	> 100 µM (inactive)
Cn1c(NC(=O)c2ccccc2)nc2cc(C#N)ccc21	> 100 µM (inactive)
O=C(Nc1nc2ccccc2n1C1CCCCC1)c1ccccc1	> 100 µM (inactive)
Cn1c(NC(=O)c2ccc(N3CCCCC3)cc2)nc2ccccc21	> 100 µM (inactive)
CO[C@H]1/C=C/O[C@@]2(C)Oc3c(C)c(O)c4c(O)c(c(C=NN5CCN(C)CC5)c(O)c4c3C2=O)NC(=O)/C(C)=C\C=C\[C@H](C)[C@H](O)[C@@H](C)[C@@H](O)[C@@H](C)[C@H](OC(C)=O)[C@@H]1C	6.43 µM
Cn1c(N)nc2ccccc21	> 50 µM (inactive)
Cn1c(NC(=O)c2cccnc2)nc2ccccc21	99.8 µM
CN1CCN(c2ccc(C(=O)Nc3nc4ccccc4n3C)cc2)CC1	> 100 µM (inactive)
CCN(CC)CCn1c(NC(=O)c2ccccc2)nc2ccccc21	102 µM
Cn1c(NC(=O)c2ccccc2)nc2c3nccnc3ccc21	63.9 µM
Cn1c(NC(=O)c2ccccc2)nc2c3ccncc3ccc21	18.4 µM
Cc1ccccc1C(=O)Nc1nc2ccccc2n1C	> 100 µM (inactive)
